# Tests used:
# [1] = compound: CCN1CCN(Cc2ccc(Nc3ncc(F)c(-c4cc(F)c5nc(C)n(C(C)C)c5c4)n3)nc2)CC1; experiment: increase in dead-cell fraction, 72 h; higher = more death;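 also: breast cancer cell lines in 384-well plates, stained with Hoechst plus LIVE/DEAD far red dye and imaged, cells above an LDR intensity threshold counted dead, Hoechst-negative corpses included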
# Neratinib/HKI272 = compound: CCOc1cc2ncc(C#N)c(Nc3ccc(OCc4ccccn4)c(Cl)c3)c2cc1NC(=O)/C=C/CN(C)C [Neratinib/HKI272]; experiment: as above
# [2] = compound: CC(=O)c1c(C)c2cnc(Nc3ccc(N4CCNCC4)cn3)nc2n(C2CCCC2)c1=O; experiment: as above
# LEE011/Ribociclib = compound: CN(C)C(=O)c1cc2cnc(Nc3ccc(N4CCNCC4)cn3)nc2n1C1CCCC1 [LEE011/Ribociclib]; experiment: as above
# Flavopiridol [3] = compound: T1, CN1CC[C@H](c2c(O)cc(O)c3c(=O)cc(-c4ccccc4Cl)oc23)[C@H](O)C1 [Flavopiridol]; experiment: as above
# [4] = compound: CCc1cnn2c(NCc3ccc[n+]([O-])c3)cc(N3CCCC[C@H]3CCO)nc12; experiment: as above
# BSJ-03-123 = compound: CC(=O)c1c(C)c2cnc(Nc3ccc(N4CCN(CCOCCOCCOCCNC(=O)COc5cccc6c5C(=O)N(C5CCC(=O)NC5=O)C6=O)CC4)cn3)nc2n(C2CCCC2)c1=O [BSJ-03-123]; experiment: as above
# THZ1 [5] = compound: T2, CN(C)C/C=C/C(=O)Nc1ccc(C(=O)Nc2cccc(Nc3ncc(Cl)c(-c4c[nH]c5ccccc45)n3)c2)cc1 [THZ1]; experiment: as above
# THZ531 = compound: CN(C)C/C=C/C(=O)Nc1ccc(C(=O)N2CCC[C@@H](Nc3ncc(Cl)c(-c4c[nH]c5ccccc45)n3)C2)cc1 [THZ531]; experiment: GR value, 72 h; higher = faster growth (1 = untreated, <0 = killing);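 also: breast cancer and non-malignant breast epithelial lines, nine half-log doses, viable cells counted by Hoechst and LIVE/DEAD dye imaging versus time-zero plates and DMSO controls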
# [6] = compound: CC(=O)c1c(C)c2cnc(Nc3ccc(N4CCNCC4)cn3)nc2n(C2CCCC2)c1=O; experiment: as above
# Flavopiridol [7] = compound: T1, Flavopiridol; experiment: as above
# THZ1 [8] = compound: T2, THZ1; experiment: as above
cell line,measurement,setting,value
CAL851,increase in dead-cell fraction,[1]; 0.001 µM,-0.0049
same,increase in dead-cell fraction,[1]; 0.003162 µM,-0.0095
same,increase in dead-cell fraction,[1]; 0.01 µM,-0.0073
same,increase in dead-cell fraction,[1]; 0.03162 µM,-0.0136
same,increase in dead-cell fraction,[1]; 0.1 µM,-0.0173
same,increase in dead-cell fraction,[1]; 0.3162 µM,-0.0161
same,increase in dead-cell fraction,[1]; 1 µM,0.0209
same,increase in dead-cell fraction,[1]; 3.162 µM,0.211
same,increase in dead-cell fraction,[1]; 10 µM,0.266
same,increase in dead-cell fraction,Neratinib/HKI272; 0.0003162 µM,-0.0016
same,increase in dead-cell fraction,Neratinib/HKI272; 0.001 µM,0.0027
same,increase in dead-cell fraction,Neratinib/HKI272; 0.003162 µM,0.006
same,increase in dead-cell fraction,Neratinib/HKI272; 0.01 µM,0.0409
same,increase in dead-cell fraction,Neratinib/HKI272; 0.03162 µM,0.113
same,increase in dead-cell fraction,Neratinib/HKI272; 0.1 µM,0.199
same,increase in dead-cell fraction,Neratinib/HKI272; 0.3162 µM,0.29
same,increase in dead-cell fraction,Neratinib/HKI272; 1 µM,0.344
same,increase in dead-cell fraction,Neratinib/HKI272; 3.162 µM,0.542
same,increase in dead-cell fraction,[2]; 0.0003162 µM,0.0002
same,increase in dead-cell fraction,[2]; 0.001 µM,0.0074
same,increase in dead-cell fraction,[2]; 0.003162 µM,-0.0015
same,increase in dead-cell fraction,[2]; 0.01 µM,-0.0049
same,increase in dead-cell fraction,[2]; 0.03162 µM,-0.0041
same,increase in dead-cell fraction,[2]; 0.1 µM,0.0052
same,increase in dead-cell fraction,[2]; 0.3162 µM,-0.004
same,increase in dead-cell fraction,[2]; 1 µM,-0.0071
same,increase in dead-cell fraction,[2]; 3.162 µM,-0.006
same,increase in dead-cell fraction,LEE011/Ribociclib; 0.001 µM,-0.003
same,increase in dead-cell fraction,LEE011/Ribociclib; 0.003162 µM,0.001
same,increase in dead-cell fraction,LEE011/Ribociclib; 0.01 µM,0.0024
same,increase in dead-cell fraction,LEE011/Ribociclib; 0.03162 µM,0
same,increase in dead-cell fraction,LEE011/Ribociclib; 0.1 µM,-0.0008
same,increase in dead-cell fraction,LEE011/Ribociclib; 0.3162 µM,-0.0059
same,increase in dead-cell fraction,LEE011/Ribociclib; 1 µM,0.0038
same,increase in dead-cell fraction,LEE011/Ribociclib; 3.162 µM,0.0003
same,increase in dead-cell fraction,LEE011/Ribociclib; 10 µM,-0.0071
same,increase in dead-cell fraction,Flavopiridol [3]; 0.0001 µM,-0.0044
same,increase in dead-cell fraction,Flavopiridol [3]; 0.0003162 µM,0.0036
same,increase in dead-cell fraction,Flavopiridol [3]; 0.001 µM,0.0039
same,increase in dead-cell fraction,Flavopiridol [3]; 0.003162 µM,-0.0035
same,increase in dead-cell fraction,Flavopiridol [3]; 0.01 µM,0.0021
same,increase in dead-cell fraction,Flavopiridol [3]; 0.03162 µM,0.001
same,increase in dead-cell fraction,Flavopiridol [3]; 0.1 µM,0.0068
same,increase in dead-cell fraction,Flavopiridol [3]; 0.3162 µM,0.0514
same,increase in dead-cell fraction,Flavopiridol [3]; 1 µM,0.103
same,increase in dead-cell fraction,[4]; 0.0001 µM,-0.007
same,increase in dead-cell fraction,[4]; 0.0003162 µM,-0.005
same,increase in dead-cell fraction,[4]; 0.001 µM,0.003
same,increase in dead-cell fraction,[4]; 0.003162 µM,0.0409
same,increase in dead-cell fraction,[4]; 0.01 µM,0.2
same,increase in dead-cell fraction,[4]; 0.03162 µM,0.147
same,increase in dead-cell fraction,[4]; 0.1 µM,0.205
same,increase in dead-cell fraction,[4]; 0.3162 µM,0.22
same,increase in dead-cell fraction,[4]; 1 µM,0.217
same,increase in dead-cell fraction,BSJ-03-123; 0.001 µM,-0.0043
same,increase in dead-cell fraction,BSJ-03-123; 0.003162 µM,-0.0029
same,increase in dead-cell fraction,BSJ-03-123; 0.01 µM,-0.0014
same,increase in dead-cell fraction,BSJ-03-123; 0.03162 µM,0.0058
same,increase in dead-cell fraction,BSJ-03-123; 0.1 µM,0.007
same,increase in dead-cell fraction,BSJ-03-123; 0.3162 µM,0.0046
same,increase in dead-cell fraction,BSJ-03-123; 1 µM,0.0134
same,increase in dead-cell fraction,BSJ-03-123; 3.162 µM,0.0379
same,increase in dead-cell fraction,BSJ-03-123; 10 µM,0.0921
same,increase in dead-cell fraction,THZ1 [5]; 0.0001 µM,-0.0023
same,increase in dead-cell fraction,THZ1 [5]; 0.0003162 µM,-0.0015
same,increase in dead-cell fraction,THZ1 [5]; 0.001 µM,0.0049
same,increase in dead-cell fraction,THZ1 [5]; 0.003162 µM,0.0027
same,increase in dead-cell fraction,THZ1 [5]; 0.01 µM,0.0075
same,increase in dead-cell fraction,THZ1 [5]; 0.03162 µM,0.0208
same,increase in dead-cell fraction,THZ1 [5]; 0.1 µM,0.053
same,increase in dead-cell fraction,THZ1 [5]; 0.3162 µM,0.123
same,increase in dead-cell fraction,THZ1 [5]; 1 µM,0.402
same,GR value,THZ531; 0.0001 µM,1.12 GR
same,GR value,THZ531; 0.0003162 µM,0.975 GR
same,GR value,THZ531; 0.001 µM,0.997 GR
same,GR value,THZ531; 0.003162 µM,0.889 GR
same,GR value,THZ531; 0.01 µM,0.924 GR
same,GR value,THZ531; 0.03162 µM,0.717 GR
same,GR value,THZ531; 0.1 µM,0.322 GR
same,GR value,THZ531; 0.3162 µM,0.0707 GR
same,GR value,THZ531; 1 µM,-0.218 GR
same,GR value,[6]; 0.0003162 µM,1.05 GR
same,GR value,[6]; 0.001 µM,1.07 GR
same,GR value,[6]; 0.003162 µM,1.13 GR
same,GR value,[6]; 0.01 µM,1.09 GR
same,GR value,[6]; 0.03162 µM,1.17 GR
same,GR value,[6]; 0.1 µM,1.06 GR
same,GR value,[6]; 0.3162 µM,0.993 GR
same,GR value,[6]; 1 µM,1.07 GR
same,GR value,[6]; 3.162 µM,1.07 GR
same,GR value,Flavopiridol [7]; 0.0001 µM,1.04 GR
same,GR value,Flavopiridol [7]; 0.0003162 µM,1.01 GR
same,GR value,Flavopiridol [7]; 0.001 µM,0.961 GR
same,GR value,Flavopiridol [7]; 0.003162 µM,0.874 GR
same,GR value,Flavopiridol [7]; 0.01 µM,0.718 GR
same,GR value,Flavopiridol [7]; 0.03162 µM,0.906 GR
same,GR value,Flavopiridol [7]; 0.1 µM,0.823 GR
same,GR value,Flavopiridol [7]; 0.3162 µM,-0.005 GR
same,GR value,Flavopiridol [7]; 1 µM,-0.159 GR
same,GR value,THZ1 [8]; 0.0001 µM,1.01 GR
same,GR value,THZ1 [8]; 0.0003162 µM,0.917 GR
same,GR value,THZ1 [8]; 0.001 µM,0.835 GR
same,GR value,THZ1 [8]; 0.003162 µM,0.727 GR
same,GR value,THZ1 [8]; 0.01 µM,0.6 GR
same,GR value,THZ1 [8]; 0.03162 µM,0.145 GR
same,GR value,THZ1 [8]; 0.1 µM,-0.146 GR
same,GR value,THZ1 [8]; 0.3162 µM,-0.225 GR
same,GR value,THZ1 [8]; 1 µM,-0.549 GR

# From the supplement of paper PMC9663587
